Reference: patent publication US9061984B2 (University of Louisville Research Foundation, Inc., priority 2008, dated 2015)
≈ marks a conversion by molar mass, not a printed value. Where two headings read alike, the source gives them in different places.

Columns and labels:
[1] = tested on: axenic amastigotes of L. amazonensis (strain MHOM/BR/76/LTB-012); settings: Table 8b; for IC50: read-out: L. amazonensis IC50
[2] = Toxicity to peritoneal macrophages (Trypan Blue count); type: cell-based, BALB/C mouse; settings: BALB/C, mouse
3T3 cells = test: Cell growth inhibition bioassay (sulforhodamine B); type: cell-based, mouse; settings: 48 h, SRB; for GI50: Mus musculus, NIH3T3, read-out: GI50 in indicated cell line: 3T3
How it was run: (§1)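 Cells were exposed to compound alongside matched solvent controls, then stained with sulforhodamine B. Percent growth inhibition was calculated from dye absorbance against the control.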

M. tuberculosis H37Rv [3] = test: Conventional aerobic (MABA) culture assay, luminescence MIC; type: cell-based, Mycobacterium tuberculosis; settings: for MIC: Mycobacterium tuberculosis, 168 h; for MIC / MIC MABA: aerobic, 7 days, H37Rv; for Selectivity Index H37Rv: VERO vs MABA MIC
[4] = Cytotoxicity VERO cell (Table 6); settings: African green monkey, VERO cells
K562 cells = test: Cell growth inhibition bioassay (sulforhodamine B); type: cell-based, human; settings: 48 h, SRB; for GI50: Homo sapiens, K562, read-out: GI50 in indicated cell line: K562
How it was run: as §1

M-14 cells = test: Cell growth inhibition bioassay (sulforhodamine B); type: cell-based, human; settings: 48 h, SRB; for GI50: Homo sapiens, M14, read-out: GI50 in indicated cell line: M-14
How it was run: as §1

DU145 cells = test: Cell growth inhibition bioassay (sulforhodamine B); type: cell-based, human; settings: 48 h, SRB; for GI50: Homo sapiens, DU-145, read-out: GI50 in indicated cell line: DU145
How it was run: as §1

HT-29 cells = test: Cell growth inhibition bioassay (sulforhodamine B); type: cell-based, human; settings: 48 h, SRB; for GI50: Homo sapiens, HT-29, read-out: GI50 in indicated cell line: HT-29
How it was run: as §1

H460 cells = test: Cell growth inhibition bioassay (sulforhodamine B); type: cell-based, human; settings: 48 h, SRB; for GI50: Homo sapiens, NCI-H460, read-out: GI50 in indicated cell line: H460
How it was run: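 Growth inhibition was measured colorimetrically with sulforhodamine B staining and expressed as percent inhibition relative to solvent-treated controls. Cell lines were human: MCF-7 breast adenocarcinoma, DU145 and PC3 prostate carcinoma/adenocarcinoma, H460 large cell lung cancer.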

MCF-7 cells = test: Cell growth inhibition bioassay (sulforhodamine B); type: cell-based, human; settings: 48 h, SRB; for GI50: Homo sapiens, MCF7, read-out: GI50 in indicated cell line: MCF-7
How it was run: as §1

[5] = Cytotoxicity on VERO cells (MTT), anti-T. cruzi study; settings: African green monkey, VERO cells
[6] = tested on: axenic amastigotes of L. amazonensis (strain MHOM/BR/76/LTB-012); test: microbe, parasite or virus in culture; settings: Leishmania amazonensis
[7] = tested on: Trypanosoma cruzi (Tulahuen C4); test: In vitro anti-T. cruzi activity (β-galactosidase CPRG colorimetric assay in VERO monolayer); type: cell-based; settings: for Selectivity Index Lab B: IC50, VERO/IC50, T. cruzi; for IC50 / inhibition at 10 µg/mL: Trypanosoma cruzi, TULAHUEN, Vero; for inhibition at 10 µg/mL: 120 h, 10 μg/mL of each compound, 120 hours, read-out: T. cruzi Inhib. (%)
VERO cells [8] = test: Cell growth inhibition bioassay (sulforhodamine B); type: cell-based, African Green Monkey; settings: 48 h, SRB; for GI50: Chlorocebus sabaeus, Vero, read-out: GI50 in indicated cell line: VERO
How it was run: as §1

[9] = tested on: non-replicating persistence Mycobacterium tuberculosis (NRP-TB); test: Low oxygen recovery assay (LORA); type: cell-based; settings: value in brackets
peritoneal macrophages = test: Toxicity to peritoneal macrophages (Trypan Blue count); type: cell-based, BALB/C mouse
VERO cell = test: Cytotoxicity VERO cell (Table 6); settings: Table 6
VERO cells [10] = test: Cytotoxicity on VERO cells (MTT), anti-T. cruzi study; settings: Lab B
M. tuberculosis H37Rv [11] = test: Anti-tuberculosis bioassay (tetrazolium microplate MIC); type: cell-based; settings: Mycobacterium tuberculosis, read-out: Mycobacterium MIC H37Rv, Table 5
M. tuberculosis MDR = test: as above; type: cell-based; settings: Mycobacterium tuberculosis, read-out: Mycobacterium MIC MDR
[12] = Lab A, read-out: T. cruzi IC50 Lab A
[13] = Lab B, read-out: T. cruzi IC50 Lab B
[14] = read-out: IC50 Cytotoxicity Against Amastigotes
[15] = IC50 Cytotoxicity Against Macrophages

Compound	Selectivity Index [1]	IC50 at 48 h ([2]; Cytotoxicity Macrophages IC50) [µM]	GI50 (3T3 cells) [µg/mL]	MIC (M. tuberculosis H37Rv [3]) [µg/mL]	Selectivity Index H37Rv (M. tuberculosis H37Rv [3])	IC50 [4] [µg/mL]	GI50 (K562 cells) [µg/mL]	GI50 (M-14 cells) [µg/mL]	GI50 (DU145 cells) [µg/mL]	GI50 (HT-29 cells) [µg/mL]	GI50 (H460 cells) [µg/mL]	GI50 (MCF-7 cells) [µg/mL]	IC50 ([5]; Cytotoxicity VERO Lab B, Lab B) [µg/mL]	IC50 ([6]; read-out: L. amazonensis IC50) [µM]	IC50 [7, 12] [µg/mL]	GI50 (VERO cells [8]) [µg/mL]	MIC (M. tuberculosis H37Rv [11]) [µg/mL]	MIC (M. tuberculosis MDR) [µg/mL]	IC50 [6, 14] [µM]	inhibition at 10 µg/mL [7] [%]	also measured
C/C(=N/Nc1ncnc2sc3c(c12)CCCC3)c1ccccc1 [II-47]	5.6	51.3	1.7 (≈ 5.27 µM)	23.4 (≈ 72.6 µM)	1.4	32.3 (≈ 100 µM)	3.5 (≈ 10.9 µM)	6.4 (≈ 19.8 µM)	5.2 (≈ 16.1 µM)	7.1 (≈ 22 µM)	5.1 (≈ 15.8 µM)	5.3 (≈ 16.4 µM)	4 (≈ 12.4 µM)	9.2	1.3 (≈ 4.03 µM)	9.3 (≈ 28.8 µM)					Selectivity Index Lab B ([7]; Lab B): 0.9; IC50 [7, 13]: 4.4 µg/mL (≈ 13.6 µM); MIC ([9]; Mycobacterium tuberculosis, anaerobic 10 days, 28 hour recovery): 2.8 µg/mL (≈ 8.68 µM); Selectivity Index LORA ([9]; VERO vs LORA MIC): 11.5
C(=Cc1ccccc1)C=NNc1ncnc2sc3c(c12)CCCC3 [II-04]																					IC50 [1]: 5.5 µM; IC50 (peritoneal macrophages): 0.6 µM; GI50 in indicated cell line: 3T3 (3T3 cells): 1.5 µg/mL (≈ 4.49 µM); MIC MABA (M. tuberculosis H37Rv [3]): 11.7 µg/mL (≈ 35 µM); Cytotoxicity VERO cell (VERO cell): 1.2 µg/mL; GI50 in indicated cell line: K562 (K562 cells): 0.5 µg/mL (≈ 1.5 µM); GI50 in indicated cell line: M-14 (M-14 cells): 1.6 µg/mL (≈ 4.78 µM); GI50 in indicated cell line: DU145 (DU145 cells): 1.8 µg/mL (≈ 5.38 µM); GI50 in indicated cell line: HT-29 (HT-29 cells): 2.7 µg/mL (≈ 8.07 µM); GI50 in indicated cell line: H460 (H460 cells): 0.7 µg/mL (≈ 2.09 µM); GI50 in indicated cell line: MCF-7 (MCF-7 cells): 0.7 µg/mL (≈ 2.09 µM); Cytotoxicity VERO Lab B (VERO cells [10]): 7.0; T. cruzi IC50 Lab A ([7]; Lab A): 0.4 µg/mL; T. cruzi IC50 Lab B ([7]; Lab B): 0.5 µg/mL; GI50 in indicated cell line: VERO (VERO cells [8]): 0.6 µg/mL (≈ 1.79 µM)
CC(C)(C)C=NNc1ncnc2sc3c(c12)CCCC3 [II-36]																					IC50 [1]: 32.5 µM; IC50 (peritoneal macrophages): 50.7 µM; GI50 in indicated cell line: 3T3 (3T3 cells): 2.1 µg/mL (≈ 7.28 µM); MIC MABA (M. tuberculosis H37Rv [3]): 86.3 µg/mL (≈ 299 µM); Cytotoxicity VERO cell (VERO cell): 29.6 µg/mL; GI50 in indicated cell line: K562 (K562 cells): 7.9 µg/mL (≈ 27.4 µM); GI50 in indicated cell line: M-14 (M-14 cells): 9.4 µg/mL (≈ 32.6 µM); GI50 in indicated cell line: DU145 (DU145 cells): 7.2 µg/mL (≈ 25 µM); GI50 in indicated cell line: HT-29 (HT-29 cells): 9.5 µg/mL (≈ 32.9 µM); GI50 in indicated cell line: H460 (H460 cells): 7.1 µg/mL (≈ 24.6 µM); GI50 in indicated cell line: MCF-7 (MCF-7 cells): 7.5 µg/mL (≈ 26 µM); T. cruzi IC50 Lab A ([7]; Lab A): 5.3 µg/mL; GI50 in indicated cell line: VERO (VERO cells [8]): 9.7 µg/mL (≈ 33.6 µM)
C(=N/Nc1ncnc2sc3c(c12)CCCC3)/c1ccccc1 [II-01]	0.6	8.7	6.7 (≈ 21.7 µM)	23.4 (≈ 75.9 µM)	0.5	11.1 (≈ 36 µM)	4.1 (≈ 13.3 µM)	5.6 (≈ 18.2 µM)	6.2 (≈ 20.1 µM)	3.8 (≈ 12.3 µM)	5.6 (≈ 18.2 µM)	3.5 (≈ 11.3 µM)	8 (≈ 25.9 µM)	13.5	1.9 (≈ 6.16 µM)	5.3 (≈ 17.2 µM)	6.25 (≈ 20.3 µM)	6.25 (≈ 20.3 µM)	3.2	80.1	IC50 ([5]; IC50 - VERO Cytotoxicity, Table 2): 29 µg/mL (≈ 94 µM); Selectivity Index Lab B ([7]; Lab B): 1.8; IC50 [7, 13]: 4.4 µg/mL (≈ 14.3 µM); IC50 ([7]; Table 2, read-out: IC50 - T. cruzi): 3.92 µg/mL (≈ 12.7 µM)
O=[N+]([O-])c1ccc(/C=N\Nc2ncnc3sc4c(c23)CCCC4)cc1 [II-22]	5.2	70.4	> 62.5	> 100			> 62.5	> 62.5	> 62.5	> 62.5	> 62.5	> 62.5		13.6		> 62.5	> 25	> 25	33.8	11.6	IC50 at 48 h [2, 15]: > 10 µM
COc1cc(/C=N\Nc2ncnc3sc4c(c23)CCCC4)cc(OC)c1OC [II-14]	1.2	3.6	9 (≈ 22.6 µM)	> 100			1.9 (≈ 4.77 µM)	6.2 (≈ 15.6 µM)	9 (≈ 22.6 µM)	4.6 (≈ 11.5 µM)	11.3 (≈ 28.4 µM)	4.2 (≈ 10.5 µM)	11 (≈ 27.6 µM)	2.9	3 (≈ 7.53 µM)	9.7 (≈ 24.3 µM)	> 25	> 25	10.5	2	IC50 at 48 h [2, 15]: > 10 µM
